Assays:
Assay type in all cases: cell-based
Conditions in all cases: HEK293 cells expressing recombinant human receptor
human A2B receptor = human A2B receptor (Homo sapiens (Human), UniProt P29275); assay: Intracellular cAMP functional assay (HTRF), A2B
Procedure: (§1) Compound activity in human adenosine receptors A2A, A2B, A1, and A3 was measured in this functional cellular assay using an HTRF kit (Perkin Elmer). […] Dose response curves were performed in parallel with the reference compounds. The reference compounds used for A2A, A2B, A1, and A3, were respectively NECA, ZM241385, DPCPX, MRS. 12 μl of cells were mixed with 6 μl of the test compound at increasing concentrations and then incubated 10 min. Thereafter 6 μl of the reference agonist was added at a final concentration corresponding to the historical EC80. The plates were then incubated for 30 min at room temperature. After addition of the lysis buffer and 1 hour incubation, cAMP concentrations were estimated, according to the manufacturer specification, with the HTRF kit. The results showing functional activity of embodied compounds on adenosine receptors are shown below in Table 1.

human A2A receptor = human A2A receptor (Homo sapiens (Human), UniProt P29274); assay: Intracellular cAMP functional assay (HTRF), A2A
Chain of human A2A receptor (P29274 whole entry): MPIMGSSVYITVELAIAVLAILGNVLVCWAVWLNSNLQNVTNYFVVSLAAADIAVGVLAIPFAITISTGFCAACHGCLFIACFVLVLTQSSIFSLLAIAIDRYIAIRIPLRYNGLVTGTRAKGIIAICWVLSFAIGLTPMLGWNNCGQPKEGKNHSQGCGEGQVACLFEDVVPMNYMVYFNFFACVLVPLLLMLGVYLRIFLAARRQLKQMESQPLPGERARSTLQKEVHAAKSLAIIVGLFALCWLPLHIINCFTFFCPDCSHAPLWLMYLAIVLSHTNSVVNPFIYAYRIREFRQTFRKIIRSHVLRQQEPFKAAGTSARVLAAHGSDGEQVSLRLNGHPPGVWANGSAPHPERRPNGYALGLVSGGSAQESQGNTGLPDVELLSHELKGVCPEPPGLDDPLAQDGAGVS
Procedure: as §1

human A1 receptor = human A1 receptor (Homo sapiens (Human), UniProt P30542); assay: Intracellular cAMP functional assay (HTRF), A1
Chain of human A1 receptor (P30542 whole entry): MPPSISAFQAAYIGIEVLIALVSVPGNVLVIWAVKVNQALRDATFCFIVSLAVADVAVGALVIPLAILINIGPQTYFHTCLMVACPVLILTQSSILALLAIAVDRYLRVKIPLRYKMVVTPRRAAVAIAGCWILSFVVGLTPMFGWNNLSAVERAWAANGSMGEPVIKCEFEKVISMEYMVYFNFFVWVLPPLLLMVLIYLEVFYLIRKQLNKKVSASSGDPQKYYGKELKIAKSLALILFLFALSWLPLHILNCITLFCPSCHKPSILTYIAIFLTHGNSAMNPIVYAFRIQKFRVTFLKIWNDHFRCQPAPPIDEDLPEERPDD
Procedure: as §1

human A3 receptor = human A3 receptor (Homo sapiens (Human), UniProt P0DMS8); assay: Intracellular cAMP functional assay (HTRF), A3
Chain of human A3 receptor (P0DMS8 whole entry): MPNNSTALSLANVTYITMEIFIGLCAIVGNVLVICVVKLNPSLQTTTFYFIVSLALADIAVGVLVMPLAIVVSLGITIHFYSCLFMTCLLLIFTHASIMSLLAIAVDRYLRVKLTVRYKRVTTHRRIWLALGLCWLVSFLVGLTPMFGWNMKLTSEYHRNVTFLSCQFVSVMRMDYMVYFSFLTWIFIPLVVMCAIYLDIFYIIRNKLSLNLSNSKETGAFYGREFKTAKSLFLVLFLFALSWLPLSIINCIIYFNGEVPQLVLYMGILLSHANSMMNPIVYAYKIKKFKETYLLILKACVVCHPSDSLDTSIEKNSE
Procedure: as §1

Chain of human A2B receptor (P29275 whole entry): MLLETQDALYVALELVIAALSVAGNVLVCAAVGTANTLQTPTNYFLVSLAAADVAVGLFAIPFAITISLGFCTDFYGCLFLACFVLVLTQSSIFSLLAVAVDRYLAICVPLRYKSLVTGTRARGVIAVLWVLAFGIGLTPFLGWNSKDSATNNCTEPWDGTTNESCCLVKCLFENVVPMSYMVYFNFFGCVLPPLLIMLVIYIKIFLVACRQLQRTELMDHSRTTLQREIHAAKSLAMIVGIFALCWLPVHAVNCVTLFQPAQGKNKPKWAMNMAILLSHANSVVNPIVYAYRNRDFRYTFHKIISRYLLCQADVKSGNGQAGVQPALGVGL

| EC50 (human A2B receptor) [nM] | EC50 (human A2A receptor) [nM] | EC50 (human A1 receptor) [nM] | EC50 (human A3 receptor) [nM] | SMILES |
| --- | --- | --- | --- | --- |
| 0.3 | 78.9 | 0.78 | > 20000 | N#Cc1cccc(-c2nc(Nc3n[nH]c(C4CC4)n3)sc2-c2ccncc2F)c1 [Compound 2, 3-{2-[(5-cyclopropyl-1H-1,2,4-triazol-3-yl)amino]-5-(3-fluoropyridin-4-yl)-1,3-thiazol-4-yl}benzonitrile] |
| 0.38 | 119 | 1.8 | > 20000 | Cc1cnccc1-c1sc(Nc2n[nH]c(C3CC3)n2)nc1-c1cccc(C#N)c1 [Compound 3, 3-{2-[(5-Cyclopropyl-1H-1,2,4-Triazol-3-Yl)Amino]-5-(3-Methylpyridin-4-Yl)-1,3-Thiazol-4-Yl}Benzonitrile] |
| 0.99 | 3890 | 16.4 | > 20000 | Cc1cc(-c2sc(Nc3n[nH]c(C4CC4)n3)nc2-c2cccc(C#N)c2)c(C)cn1 [Compound 4, 3-{2-[(5-Cyclopropyl-1H-1,2,4-Triazol-3-Yl)Amino]-5-(2,5-Dimethylpyridin-4-Yl)-1,3-Thiazol-4-Yl}Benzonitrile] |
| 0.76 | 478 | 2.3 | 2350 | N#Cc1cccc(-c2nc(Nc3n[nH]c(C4CC4)n3)sc2-c2ccncc2Cl)c1 [Compound 5, 3-[5-(3-Chloropyridin-4-Yl)-2-[(5-Cyclopropyl-1H-1,2,4-Triazol-3-Yl)Amino]-1,3-Thiazol-4-Yl]Benzonitrile] |
| 0.84 | 206 | 1.2 | 2060 | Cc1nccc(-c2sc(Nc3n[nH]c(C4CC4)n3)nc2-c2cccc(C#N)c2)c1C [Compound 6, 3-{2-[(5-Cyclopropyl-1H-1,2,4-Triazol-3-Yl)Amino]-5-(2,3-Dimethylpyridin-4-Yl)-1,3-Thiazol-4-Yl}Benzonitrile] |
| 1.4 | 24.4 | 1.7 | 1740 | Cc1cc(-c2sc(Nc3n[nH]c(C4CC4)n3)nc2-c2cccc(C#N)c2)ccn1 [Compound 7, 3-{2-[(5-Cyclopropyl-1H-1,2,4-Triazol-3-Yl)Amino]-5-(2-Methylpyridin-4-Yl)-1,3-Thiazol-4-Yl}Benzonitrile] |
| 2.9 | > 10000 | 107 | > 20000 | Cc1nccn1-c1sc(Nc2n[nH]c(C3CC3)n2)nc1-c1cccc(C#N)c1 [Compound 8, 3-{2-[(5-Cyclopropyl-1H-1,2,4-Triazol-3-Yl)Amino]-5-(2-Methyl-1H-Imidazol-1-Yl)-1,3-Thiazol-4-Yl}Benzonitrile] |
| 3.3 | > 10000 | 145 | 2350 | Cc1nccn1-c1sc(Nc2nc[nH]n2)nc1-c1cccc(C#N)c1 [Compound 9, 3-[5-(2-Methyl-1H-Imidazol-1-Yl)-2-[(1H-1,2,4-Triazol-3-Yl)Amino]-1,3-Thiazol-4-Yl]Benzonitrile] |
| 2.8 | > 10000 | 65 | > 20000 | Cc1cc(-c2sc(Nc3n[nH]c(C)n3)nc2-c2cccc(C#N)c2)c(C)cn1 [Compound 13, 3-[5-(2,5-Dimethylpyridin-4-Yl)-2-[(5-Methyl-1H-1,2,4-Triazol-3-Yl)Amino]-1,3-Thiazol-4-Yl]Benzonitrile] |
| 3 | > 10000 | 36.1 | > 20000 | Cc1cc(-c2sc(Nc3n[nH]c(CO)n3)nc2-c2cccc(C#N)c2)c(C)cn1 [Compound 14, 3-[5-(2,5-Dimethylpyridin-4-Yl)-2-{[5-(Hydroxymethyl)-1H-1,2,4-Triazol-3-Yl]Amino}-1,3-Thiazol-4-Yl]Benzonitrile] |
| 2.2 | 61 | – | – | CCc1nccn1-c1sc(Nc2n[nH]c(C)n2)nc1-c1cccc(C#N)c1 [Compound 16, 3-[5-(2-Ethyl-1H-Imidazol-1-Yl)-2-[(5-Methyl-1H-1,2,4-Triazol-3-Yl)Amino]-1,3-Thiazol-4-Yl]Benzonitrile] |
| 2.4 | 100 | – | – | N#Cc1cccc(-c2nc(Nc3n[nH]c(C4CC4)n3)sc2-n2ccnc2CO)c1 [Compound 17, 3-{2-[(5-Cyclopropyl-1H-1,2,4-Triazol-3-Yl)Amino]-5-[2-(Hydroxymethyl)-1H-Imidazol-1-Yl]-1,3-Thiazol-4-Yl}Benzonitrile] |
| 33.4 | > 10000 | – | – | Cc1nccn1-c1sc(Nc2n[nH]c(C3CC3)n2)nc1-c1cc(C#N)ccc1F [Compound 18, 3-{2-[(5-Cyclopropyl-1H-1,2,4-Triazol-3-Yl)Amino]-5-(2-Methyl-1H-Imidazol-1-Yl)-1,3-Thiazol-4-Yl}-4-Fluorobenzonitrile] |
| 2.01 | 5760 | 885 | > 3400 | N#Cc1cccc(-c2nc(Nc3nc[nH]n3)sc2-n2ccnc2CO)c1 [Compound 19, 3-{5-[2-(Hydroxymethyl)-1H-Imidazol-1-Yl]-2-[(1H-1,2,4-Triazol-3-Yl)Amino]-1,3-Thiazol-4-Yl}Benzonitrile] |
| 1.26 | 3410 | 360 | > 30000 | CCc1nc(Nc2nc(-c3cccc(C#N)c3)c(-n3ccnc3CO)s2)n[nH]1 [Compound 20, 3-{2-[(5-Ethyl-1H-1,2,4-Triazol-3-Yl)Amino]-5-[2-(Hydroxymethyl)-1H-Imidazol-1-Yl]-1,3-Thiazol-4-Yl}Benzonitrile] |
| 1.64 | 6980 | > 30000 | > 30000 | Cc1nc(Nc2nc(-c3cccc(C#N)c3)c(-n3ccnc3CO)s2)n[nH]1 [Compound 21, 3-{5-[2-(Hydroxymethyl)-1H-Imidazol-1-Yl]-2-[(5-Methyl-1H-1,2,4-Triazol-3-Yl)Amino]-1,3-Thiazol-4-Yl}Benzonitrile] |
| 0.6 | – | 2.3 | > 30000 | Cc1cnccc1-c1sc(Nc2nc[nH]n2)nc1-c1cccc(C#N)c1 [Compound 22, 3-{5-(3-Methylpyridin-4-Yl)-2-[(1H-1,2,4-Triazol-3-Yl)Amino]-1,3-Thiazol-4-Yl}Benzonitrile] |
| 6.7 | – | 115 | > 30000 | Cc1cnncc1-c1sc(Nc2n[nH]c(C3CC3)n2)nc1-c1cccc(C#N)c1 [Compound 23, 3-{2-[(5-Cyclopropyl-1H-1,2,4-Triazol-3-Yl)Amino]-5-(5-Methylpyridazin-4-Yl)-1,3-Thiazol-4-Yl}Benzonitrile] |
| 2.3 | – | 24.1 | > 30000 | N#Cc1cccc(-c2nc(Nc3n[nH]c(C4CC4)n3)sc2-c2ccncn2)c1 [Compound 24, 3-{2-[(5-Cyclopropyl-1H-1,2,4-Triazol-3-Yl)Amino]-5-(Pyrimidin-4-Yl)-1,3-Thiazol-4-Yl}Benzonitrile] |
| 2.4 | – | 2.6 | > 30000 | N#Cc1cccc(-c2nc(Nc3n[nH]c(C4CC4)n3)sc2-c2ccnnc2)c1 [Compound 25, 3-{2-[(5-Cyclopropyl-1H-1,2,4-Triazol-3-Yl)Amino]-5-(Pyridazin-4-Yl)-1,3-Thiazol-4-Yl}Benzonitrile] |
| 0.7 | – | 0.8 | > 30000 | N#Cc1cccc(-c2nc(Nc3n[nH]c(C4CC4)n3)sc2-c2ccncc2)c1 [Compound 26, 3-{2-[(5-Cyclopropyl-1H-1,2,4-Triazol-3-Yl)Amino]-5-(Pyridin-4-Yl)-1,3-Thiazol-4-Yl}Benzonitrile] |
| 1.7 | – | 20.7 | > 30000 | Cc1cncnc1-c1sc(Nc2n[nH]c(C3CC3)n2)nc1-c1cccc(C#N)c1 [Compound 27, 3-{2-[(5-Cyclopropyl-1H-1,2,4-Triazol-3-Yl)Amino]-5-(5-Methylpyrimidin-4-Yl)-1,3-Thiazol-4-Yl}Benzonitrile] |
| 0.4 | 1.1 | 4.8 | > 30000 | Cn1cc(-c2sc(Nc3n[nH]c(C4CC4)n3)nc2-c2cccc(C#N)c2)ccc1=O [Compound 29, 3-{2-[(5-Cyclopropyl-1H-1,2,4-Triazol-3-Yl)Amino]-5-(1-Methyl-6-Oxo-1,6-Dihydropyridin-3-Yl)-1,3-Thiazol-4-Yl}Benzonitrile] |
